According to ChEMBL document CHEMBL1147723, “Novel chromene-derived selective estrogen receptor modulators useful for alleviating hot flushes and vaginal dryness” (J Med Chem, 2006):
Calls of active or inactive are those of the source. The rule behind the calls is not given here.

Assays:
[1] = biological target: T1, Estrogen receptor (Homo sapiens, UniProt Q92731+P03372); details: mcf7
Description: Inhibition of estrogen receptor in MCF7 cells

[2] = biological target: T1, Estrogen receptor; details: ishikawa
Description: Inhibition of estrogen receptor in Ishikawa cells

[3] = species on record: Rattus norvegicus; test: Reduction in serum cholesterol level in ovariectomized rat; type: functional; set-up: scale not given: the % may be the effect or the level left
[4] = biological target: Estrogen receptor beta (Homo sapiens, UniProt Q92731)
Description: Binding affinity to ERbeta

[5] = species on record: Rattus norvegicus; test: Inhibition of bone loss in ovariectomized rat; type: functional, organism-based
[6] = system: Rattus norvegicus; test: Ability to block estrone-induced increase in uterine wet weight in immature rat at 0.42 mg/kg/day, po after 3 days by uterotropic assay; type: functional; details: 72 h
[7] = species on record: Rattus norvegicus; test: Ability to suppress increase of tail skin temperature in morphine-dependent rat; type: functional, organism-based
[8] = system: Rattus norvegicus; test: (§1) Ability to block estrone-induced increase in uterine wet weight in immature rat at […], po after 3 days by uterotropic assay; type: functional; details: 72 h
[9] = system: Rattus norvegicus; test: as §1; type: functional; details: 72 h; remark: listed apart in the source
[10] = Bioavailability in rat plasma; type: ADME, organism-based
[11] = biological target: T2, Estrogen receptor (Homo sapiens, UniProt P03372)
T2 sequence (P03372 whole entry): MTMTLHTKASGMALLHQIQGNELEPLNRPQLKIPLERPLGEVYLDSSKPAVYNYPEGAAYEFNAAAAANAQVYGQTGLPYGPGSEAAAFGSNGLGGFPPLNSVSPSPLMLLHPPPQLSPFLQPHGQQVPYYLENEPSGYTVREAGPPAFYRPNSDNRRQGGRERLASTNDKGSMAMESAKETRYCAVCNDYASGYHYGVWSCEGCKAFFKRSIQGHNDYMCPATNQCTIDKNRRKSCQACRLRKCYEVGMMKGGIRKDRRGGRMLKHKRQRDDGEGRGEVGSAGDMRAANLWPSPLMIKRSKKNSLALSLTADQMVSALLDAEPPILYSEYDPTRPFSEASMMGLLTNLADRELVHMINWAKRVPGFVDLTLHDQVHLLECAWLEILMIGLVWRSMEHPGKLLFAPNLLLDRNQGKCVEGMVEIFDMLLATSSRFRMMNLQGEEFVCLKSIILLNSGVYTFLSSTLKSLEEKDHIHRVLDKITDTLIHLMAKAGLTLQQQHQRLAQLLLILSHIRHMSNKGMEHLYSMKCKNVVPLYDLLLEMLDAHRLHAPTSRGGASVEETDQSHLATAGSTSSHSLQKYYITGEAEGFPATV
Description: Binding affinity to ERalpha

[12] = biological target: T1, Estrogen receptor; test: Agonist activity at estrogen receptor in MCF7 cells; type: functional, cell-based
[13] = system: Rattus norvegicus; test: (§2) Increase in vaginal fluid in ovariectomized rat at […], po; type: functional, organism-based; set-up: dose 1.4 mg/kg
[14] = system: Rattus norvegicus; test: as §2; type: functional, organism-based; set-up: dose 0.14 mg/kg
[15] = system: Rattus norvegicus; test: Ability to suppress increase of tail skin temperature in morphine-dependent rat at […].day, po; type: functional, organism-based; set-up: dose 1.4 mg/kg

Chain of Estrogen receptor beta (Q92731 whole entry): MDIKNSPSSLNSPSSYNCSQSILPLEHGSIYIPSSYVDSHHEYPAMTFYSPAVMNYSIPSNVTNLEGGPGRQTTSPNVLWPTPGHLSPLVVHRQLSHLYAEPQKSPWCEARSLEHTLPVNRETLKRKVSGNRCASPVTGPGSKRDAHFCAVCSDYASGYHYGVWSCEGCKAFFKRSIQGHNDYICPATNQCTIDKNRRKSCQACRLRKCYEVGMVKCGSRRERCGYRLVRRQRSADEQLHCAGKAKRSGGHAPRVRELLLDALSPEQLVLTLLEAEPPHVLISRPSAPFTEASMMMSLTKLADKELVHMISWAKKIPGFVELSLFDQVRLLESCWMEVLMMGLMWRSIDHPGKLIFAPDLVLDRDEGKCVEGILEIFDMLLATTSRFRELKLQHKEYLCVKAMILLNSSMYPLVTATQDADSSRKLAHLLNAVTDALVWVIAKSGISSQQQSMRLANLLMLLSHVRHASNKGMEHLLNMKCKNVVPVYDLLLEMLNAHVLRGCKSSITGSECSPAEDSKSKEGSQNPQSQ

SMILES	IC50 [1]	IC50 [2]	Activity [3]	IC50 [4]	Activity [5]	inhibition in vivo at 0.42 mg/kg/day [6]	Activity [7]	inhibition in vivo at […] [8]	inhibition in vivo at […] [9]	bioavailability [10]	IC50 [11]	EC50 [12]	Activity [13]	Activity [14]	Activity [15]
CN(C)CCOc1ccc(C2Oc3cc(O)ccc3C3=C2c2ccc(O)cc2OC3)cc1 (stereo not drawn)	220 nM	180 nM	–	–	–	–	–	–	–	–	–	–	–	–	–
CC(C)(C)C(=O)Oc1ccc2c(c1)O[C@@H](c1ccc(OCCN3CCCCC3)cc1)C1=C2COc2cc(OC(=O)C(C)(C)C)ccc21	670 nM	99 nM	33%	> 10000 nM	Dose-dependent effect	88%	inactive	55%	100%	9%	> 1000 nM	–	–	–	–
Oc1ccc2c(c1)O[C@@H](c1ccc(OCCN3CCCCC3)cc1)C1=C2COc2cc(O)ccc21	416 nM	17.1 nM	–	1.3 nM	–	–	–	–	–	–	0.61 nM	–	–	–	–
Oc1ccc2c(c1)OC(c1ccc(OCCN3CCCCC3)cc1)C1=C2COc2cc(O)ccc21 (stereo not drawn)	110 nM	12 nM	–	–	–	–	–	–	–	–	–	–	–	–	–
CN(C)c1ccc(C2Oc3cc(O)ccc3C3=C2c2ccc(O)cc2OC3)cc1 (stereo not drawn)	–	3800 nM	–	–	–	–	–	–	–	–	–	71 nM	–	–	–
Oc1ccc2c(c1)O[C@H](c1ccc(OCCN3CCCCC3)cc1)C1=C2COc2cc(O)ccc21	599 nM	43.3 nM	–	20.3 nM	–	–	–	–	–	–	51 nM	–	–	–	–
CC(C)(C)C(=O)Oc1ccc2c(c1)O[C@H](c1ccc(OCCN3CCCCC3)cc1)C1=C2COc2cc(OC(=O)C(C)(C)C)ccc21	510 nM	175 nM	33%	> 10000 nM	Dose-dependent effect	55%	–	27%	75%	11%	> 10000 nM	–	Active	Active	Active
